# Data taken from US11780841B2, “3,6-methano-1H-pyrrolo[3,2-b]pyridine and 3,6-methano-1H-pyrrolo[3,2-c]pyridine compounds and medicaments using same” (priority 2018, dated 2023).
# System: recombinant rabies virus 1088 strain expressing Gaussia Luciferase (GLuc) (1088/GLuc)
# Type: cell-based
# Conditions: read-out: Anti-rabies activity
row,Compound,IC50
1,N=C(N)NCCCNC(=O)[C@]12NC[C@H]3C[C@H]1CN(CCc1ccccc1)[C@H]2[C@@H]3Cc1ccccc1 [IB-344],10 to 30 µM
2,CC(C)CC[C@@H]1[C@H]2CN[C@@]3(C(=O)NCCCNC(=N)N)[C@@H](C2)CN(Cc2cccc4ccccc24)[C@@H]13 [IB-353],< 5 µM
3,O=C(NCc1ccc(F)cc1)C12NCC3CC1CN(CCO)C2C3Cc1ccc(O)cc1 (centres unmarked) [IB-549],10 to 30 µM
4,CC(C)CCN1C[C@H]2C[C@]3(C(=O)NCc4ccc(O)cc4)NC[C@H]2[C@H]1[C@H]3CCc1ccccc1 [IF-464],10 to 30 µM
5,N=C(N)NCCC[C@@H]1[C@H]2CN[C@@]3(C(=O)NCCc4ccccc4)[C@@H](C2)CN(Cc2ccc(F)cc2)[C@@H]13 [IB-262],10 to 30 µM
6,CC(C)CC[C@@H]1[C@H]2CN[C@@]3(C(=O)NCCO)[C@@H](C2)CN(Cc2ccc(F)cc2)[C@@H]13 [IB-668],< 5 µM
7,CC(C)CCN1C[C@H]2C[C@]3(C(=O)NCC(C)C)NC[C@H]2[C@H]1[C@H]3CCc1ccccc1 [IF-635],10 to 30 µM
8,O=C(NCc1ccc(O)cc1)[C@]12NC[C@H]3C[C@H]1CN(CCO)[C@H]2[C@@H]3Cc1cccc2ccccc12 [IB-470],10 to 30 µM
9,CCCCCCNC(=O)[C@@]12C[C@@H]3CN(CC(C)C)[C@@H]([C@@H]3CN1)[C@H]2CC(C)C (relative stereo) [IF-569],10 to 30 µM

# Same assay, conditions: read-out: anti-rabies virus activity IC50
row,Compound,IC50
1,"NC(=O)c1nc(F)c[nH]c1=O [Compound T-705, Favipiravir]",30 µM

# System: rabies virus
# Conditions: mouse, in vivo; cited from earlier work
row,Compound,prophylactic effect on rabies virus
1,"NC(=O)c1nc(F)c[nH]c1=O [Compound T-705, Favipiravir]",significant prophylactic effect was confirmed
